This passage reports T/C results from PubChem BioAssay AID256 (DTP/NCI, 2004).

The test relates to CD2F1 mice, L1210 leukemia ip, survival T/C. Nature of the test: NCI In Vivo Anticancer Drug Screen. Data for tumor model L1210 Leukemia (intraperitoneal) in CD2F1 (CDF1) mice. The note with it: endpoint: mean survival time, higher = longer survival. The method in brief:
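Mice carrying a transplanted tumor received test compound or vehicle alone. The value is the measurement in the treated group divided by that in the vehicle-treated control group.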

Where [1] appears, read: dose: 100.0 mg/kg/injection, schedule: Q01DX009 (ip), vehicle: saline with Tween-80.
The mark [2] stands for this setting: dose: 100.0 mg/kg/injection, schedule: Q04DX003 (ip), vehicle: saline with Tween-80.
Where [3] appears, read: dose: 200.0 mg/kg/injection, schedule: Q01DX009 (ip), vehicle: saline with Tween-80.
Setting [4] is: dose: 200.0 mg/kg/injection, schedule: Q04DX003 (ip), vehicle: saline with Tween-80.
[5] abbreviates: dose: 400.0 mg/kg/injection, schedule: Q04DX003 (ip), vehicle: saline with Tween-80.

Structures are written as SMILES. Inconclusive results and toxic doses are left out.

As to `CC[n+]1ccc(Nc2ccc(NC(=O)c3ccc(C(=O)Nc4ccc(Nc5cc[n+](CC)c(N)n5)cc4)cc3)cc2)nc1N`, the T/C is, setting by setting: (dose: 12.5 mg/kg/injection, schedule: Q01DX009 (ip), vehicle: saline) 172 % of control; (dose: 25.0 mg/kg/injection, schedule: Q01DX009 (ip), vehicle: saline) 325 % of control; (dose: 40.0 mg/kg/injection, schedule: Q01DX009 (ip), vehicle: saline) 265 % of control; (dose: 50.0 mg/kg/injection, schedule: Q01DX009 (ip), vehicle: saline) 275 % of control; (dose: 59.0 mg/kg/injection, schedule: Q01DX009 (ip), vehicle: saline) 262 % of control; (dose: 89.0 mg/kg/injection, schedule: Q01DX009 (ip), vehicle: saline) 212 % of control. In addition, the T/C (dose: 150.0 mg/kg/injection, schedule: Q01DX001 (ip), vehicle: Klucel (hydroxypropylcellulose) (HPC)) is 167 % of control; the T/C (dose: 200.0 mg/kg/injection, schedule: Q01DX009 (ip), vehicle: saline) was 118 % of control; the T/C (dose: 225.0 mg/kg/injection, schedule: Q01DX001 (ip), vehicle: Klucel (hydroxypropylcellulose) (HPC)) is 315 % of control.
Regarding `O=C1CCC2(Cc3ccccc3C2=O)O1` (stereo not drawn), the T/C was 94 % of control (dose: 75.0 mg/kg/injection, schedule: Q01DX001 (ip), vehicle: saline); 96 % of control (dose: 150.0 mg/kg/injection, schedule: Q01DX001 (ip), vehicle: saline); 94 % of control (dose: 300.0 mg/kg/injection, schedule: Q01DX001 (ip), vehicle: saline).
Turning to `Cc1nc2c(c(=O)[nH]1)C(c1ccccc1)C(C)(C)O2` (stereo not drawn), the T/C is, setting by setting: under setting [1], 96 % of control; under setting [2], 93 % of control; under setting [3], 93 % of control; under setting [4], 96 % of control; (dose: 400.0 mg/kg/injection, schedule: Q01DX009 (ip), vehicle: saline with Tween-80) 93 % of control; under setting [5], 93 % of control.
Regarding `COCC1C(N)C(C)NC(Cl)C1C#N` (stereo not drawn), the T/C under setting [1] was 97 % of control; the T/C under setting [2] was 95 % of control; the T/C under setting [3] is 97 % of control; the T/C under setting [4] was 100 % of control; the T/C under setting [5] was 100 % of control.
